Holding throughout (assay type): in vivo
Assay [1] has as its system giant foxtail (Setaria faberii). The assay can be described thus: Test A preemergence. The settings on record: Setaria faberi, pre-emergence, 240 h, preemergence, read-out: Foxtail, Giant plant response rating; for pest or weed control at 125 g/ha: 125 g ai/ha, 0 to 100 scale where 0 is no effect and 100 is complete control; for pest or weed control at 500 g/ha: 500 g ai/ha, visual injury rating about 10 d after treatment, 0 to 100 scale (0 no effect, 100 complete control). Summed up:
(§1)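 Visual injury scores from 0, no effect, to 100, complete control, were assigned versus untreated controls roughly 10 d after treatment in the greenhouse. Test chemicals, formulated with surfactant in a non-phytotoxic solvent, were applied to planted seeds as a preemergence soil spray or postemergence to one- to two-leaf plants 2 to 10 cm tall, in loam–sand soil.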

The test system of assay [2] is pigweed (Amaranthus retroflexus). Kind of assay: Test A preemergence. The settings on record: Amaranthus retroflexus, pre-emergence, 240 h, preemergence, read-out: Pigweed plant response rating; for pest or weed control at 125 g/ha: 125 g ai/ha, 0 to 100 scale where 0 is no effect and 100 is complete control; for pest or weed control at 500 g/ha: 500 g ai/ha, visual injury rating about 10 d after treatment, 0 to 100 scale (0 no effect, 100 complete control).

Assay [3] has as its system ryegrass, Italian (Italian ryegrass, Lolium multiflorum). Kind of assay: Test A preemergence. The note with it: Lolium multiflorum, pre-emergence, 240 h, 500 g ai/ha, preemergence; visual injury rating about 10 d after treatment, 0 to 100 scale (0 no effect, 100 complete control); read-out: Ryegrass, Italian plant response rating. Summed up:
as §1

Assay [4] has as its system barnyardgrass (Echinochloa crus-galli). The assay can be described thus: Test A preemergence. The note with it: Echinochloa crus-galli, pre-emergence, 240 h, preemergence, read-out: Barnyardgrass plant response rating; for pest or weed control at 125 g/ha: 125 g ai/ha, 0 to 100 scale where 0 is no effect and 100 is complete control; for pest or weed control at 500 g/ha: 500 g ai/ha, visual injury rating about 10 d after treatment, 0 to 100 scale (0 no effect, 100 complete control). In outline:
as §1

Assay [5] deals with ragweed (common ragweed, Ambrosia elatior). The assay can be described thus: Test A preemergence. The note with it: Ambrosia artemisiifolia, pre-emergence, 240 h, 500 g ai/ha, preemergence; visual injury rating about 10 d after treatment, 0 to 100 scale (0 no effect, 100 complete control); read-out: Ragweed plant response rating. Summed up: as §1
Assay [6] deals with Kochia (Kochia scoparia). The assay can be described thus: Test A preemergence. The settings on record: Bassia scoparia, pre-emergence, 240 h, preemergence, read-out: Kochia plant response rating; for pest or weed control at 125 g/ha: 125 g ai/ha, 0 to 100 scale where 0 is no effect and 100 is complete control; for pest or weed control at 500 g/ha: 500 g ai/ha, visual injury rating about 10 d after treatment, 0 to 100 scale (0 no effect, 100 complete control). In outline: as §1

Assay [7] relates to giant foxtail (Setaria faberii). Kind of assay: Test A postemergence. The note with it: Setaria faberi, post-emergence, 240 h, 125 g ai/ha, Postemergence; visual injury after approximately 10 d; 0 to 100 scale where 0 is no effect and 100 is complete control; read-out: Plant response rating, Foxtail, Giant. Summed up:
as §1

The test system of assay [8] is pigweed (Amaranthus retroflexus). Kind of assay: Test A postemergence. The note with it: Amaranthus retroflexus, post-emergence, 240 h, 125 g ai/ha, Postemergence; visual injury after approximately 10 d; 0 to 100 scale where 0 is no effect and 100 is complete control; read-out: Plant response rating, Pigweed. In outline:
as §1

Assay [9] has as its system corn (Zea mays). The assay can be described thus: Test A postemergence. The settings on record: Zea mays, post-emergence, 240 h, 125 g ai/ha, Postemergence; visual injury after approximately 10 d; 0 to 100 scale where 0 is no effect and 100 is complete control. Summed up:
as §1

For assay [10], the system named is ryegrass, Italian (Italian ryegrass, Lolium multiflorum). The assay can be described thus: Test A postemergence. The note with it: Lolium multiflorum, post-emergence, 240 h, 125 g ai/ha, Postemergence; visual injury after approximately 10 d; 0 to 100 scale where 0 is no effect and 100 is complete control; read-out: Plant response rating, Ryegrass, Italian. Summed up: as §1

Assay [11] concerns blackgrass (Alopecurus myosuroides). Kind of assay: Test A postemergence. The note with it: Alopecurus myosuroides, post-emergence, 240 h, 125 g ai/ha, Postemergence; visual injury after approximately 10 d; 0 to 100 scale where 0 is no effect and 100 is complete control; read-out: Plant response rating, Blackgrass. Summed up:
as §1

For assay [12], the system named is wheat (Triticum aestivum). Kind of assay: Test A postemergence. The note with it: Triticum aestivum, post-emergence, 240 h, 125 g ai/ha, Postemergence; visual injury after approximately 10 d; 0 to 100 scale where 0 is no effect and 100 is complete control; read-out: Plant response rating, Wheat. Summed up: as §1
For assay [13], the system named is barnyardgrass (Echinochloa crus-galli). The assay can be described thus: Test A postemergence. The note with it: Echinochloa crus-galli, post-emergence, 240 h, 125 g ai/ha, Postemergence; visual injury after approximately 10 d; 0 to 100 scale where 0 is no effect and 100 is complete control; read-out: Plant response rating, Barnyardgrass. In outline:
as §1

Assay [14] concerns ragweed (common ragweed, Ambrosia elatior). Kind of assay: Test A postemergence. The settings on record: Ambrosia artemisiifolia, post-emergence, 240 h, 125 g ai/ha, Postemergence; visual injury after approximately 10 d; 0 to 100 scale where 0 is no effect and 100 is complete control; read-out: Plant response rating, Ragweed. Summed up: as §1
Assay [15] relates to Kochia (Kochia scoparia). The assay can be described thus: Test A postemergence. The settings on record: Bassia scoparia, post-emergence, 240 h, 125 g ai/ha, Postemergence; visual injury after approximately 10 d; 0 to 100 scale where 0 is no effect and 100 is complete control; read-out: Plant response rating, Kochia. Summed up: as §1
The subject of assay [16] is Galium (catchweed bedstraw, Galium aparine). Kind of assay: Test A postemergence. The note with it: Galium, post-emergence, 240 h, 125 g ai/ha, Postemergence; visual injury after approximately 10 d; 0 to 100 scale where 0 is no effect and 100 is complete control; read-out: Plant response rating, Galium. Summed up: as §1

Consider `C=CCOc1cccc(C2CN(C)C(=O)C2C(=O)Nc2cccc(F)c2F)c1` (stereo not shown) [Compound 933], for which the pest or weed control at 125 g/ha worked out at 90% in assay [1]; 30% in assay [2]; 90% in assay [4]; 50% in assay [6]; 90% in assay [7]; 0% in [8]. The pest or weed control at 125 g/ha in assay [10] stood at 40%; in assay [11], 20%; in assay [13] it was 90%; in assay [14] it was 0%; in assay [15], 50%; in assay [16], 50%. In addition, the pest or weed control at 500 g/ha in assay [1] turned out to be 100%; in assay [2] it was 30%; in [3] it was 70%; in assay [4], 100%; in [5], 90%; in assay [6], 90%. In assay [9], this compound returned a Corn plant response rating (crop injury, 0 = no effect, 100 = complete kill) at 125 g/ha of 40%. The plant injury at 125 g/ha in assay [12] amounted to 20%.
Turning to `CN1C[C@H](c2ccc(C(F)(F)F)cc2)[C@@H](C(=O)Nc2cccc(F)c2Br)C1=O` [Compound 937], the pest or weed control at 125 g/ha was 90% in assay [1]; 50% in assay [2]; 90% in assay [4]; 80% in [6]; 90% in [7]; 60% in assay [8]. For the same compound, the pest or weed control at 125 g/ha is 20% in [10]; 30% in [11]; 70% in assay [13]; 20% in [14]; 30% in assay [15]; 70% in assay [16]. Moreover, the pest or weed control at 500 g/ha in [1] is 90%; in assay [2] it was 80%; in assay [3] it was 50%; in [4], 90%; in [5], 80%; in assay [6] it was 80%. Moreover, the Corn plant response rating (crop injury, 0 = no effect, 100 = complete kill) at 125 g/ha in assay [9] came to 20%. Besides, the plant injury at 125 g/ha in assay [12] worked out at 20%.
